Each block holds one compound with its values, some of them ahead of it. The source made the active and inactive calls. The rule behind the calls is not given here.
How the values were obtained:
Homo sapiens [1] = species on record: Homo sapiens; assay: Binding affinity to IP3 receptor (unknown origin) 10 umol/L by radioligand binding assay; details: dose 10.0 µmol/L
[2] = target: Sodium-dependent noradrenaline transporter (Homo sapiens) (UniProt P23975); assay: Binding affinity to norepinephrine transporter (unknown origin) 10 umol/L by radioligand binding assay; details: dose 10.0 µmol/L
[3] = target: Muscarinic acetylcholine receptor M2 (Homo sapiens) (UniProt P08172); assay: Binding affinity to muscarinic M2 (unknown origin) 10 umol/L by radioligand binding assay; details: dose 10.0 µmol/L
[4] = target: Alpha-1B adrenergic receptor (Homo sapiens) (UniProt P35368); assay: Binding affinity to alpha1B adrenoreceptor (unknown origin) 10 umol/L by radioligand binding assay; details: dose 10.0 µmol/L
[5] = target: Substance-K receptor (Homo sapiens) (UniProt P21452); assay: Binding affinity to NK2 receptor (unknown origin) 10 umol/L by radioligand binding assay; details: dose 10.0 µmol/L
[6] = target: Cysteinyl leukotriene receptor 1 (Homo sapiens) (UniProt Q9Y271); assay: Binding affinity to Leukotriene D4 receptor (unknown origin) 10 umol/L by radioligand binding assay; details: dose 10.0 µmol/L
[7] = target: Cannabinoid receptor 2 (Homo sapiens) (UniProt P34972); assay: Binding affinity to CB2 (unknown origin) 10 umol/L by radioligand binding assay; details: dose 10.0 µmol/L
[8] = target: 5-hydroxytryptamine receptor 2A (Homo sapiens) (UniProt P28223); assay: Binding affinity to 5-HT2A receptor (unknown origin) 10 umol/L by radioligand binding assay; details: dose 10.0 µmol/L
[9] = target: Sigma non-opioid intracellular receptor 1 (Homo sapiens) (UniProt Q99720); assay: Binding affinity to sigma1 receptor (unknown origin) 10 umol/L by radioligand binding assay; details: dose 10.0 µmol/L
[10] = target: Melatonin receptor type 1A (Homo sapiens) (UniProt P48039); assay: Binding affinity to MT1 receptor (unknown origin) 10 umol/L by radioligand binding assay; details: dose 10.0 µmol/L
[11] = target: Voltage-gated L-type calcium channel (Homo sapiens, UniProt Q13936+Q13698+Q01668+O60840); assay: Binding affinity to Voltage-dependent L-type calcium channel phenylalkylamine site (unknown origin) 10 umol/L by radioligand binding assay; assay type: protein assay; details: 10 µM, dose 10 µmol/L
[12] = target: Endothelin receptor type B (Homo sapiens) (UniProt P24530); assay: Binding affinity to ETB receptor (unknown origin) 10 umol/L by radioligand binding assay; details: dose 10.0 µmol/L
[13] = target: Neuropeptide Y receptor type 1 (Homo sapiens) (UniProt P25929); assay: Binding affinity to Y1 receptor (unknown origin) 10 umol/L by radioligand binding assay; details: dose 10.0 µmol/L
Homo sapiens [14] = species on record: Homo sapiens; assay: Binding affinity to glycine receptor strychnine-sensitive binding site (unknown origin) 10 umol/L by radioligand binding assay; details: dose 10.0 µmol/L
[15] = target: Adenosine receptor A1 (Homo sapiens) (UniProt P30542); assay: Binding affinity to A1 receptor (unknown origin) at 10 umol/L by radioligand binding assay; details: dose 10.0 µmol/L
Homo sapiens [16] = species on record: Homo sapiens; assay: Binding affinity to Vasopressin V1 receptor (unknown origin) 10 umol/L by radioligand binding assay; details: dose 10.0 µmol/L
Homo sapiens [17] = species on record: Homo sapiens; assay: Binding affinity to D4.2 receptor (unknown origin) 10 umol/L by radioligand binding assay; details: dose 10.0 µmol/L
[18] = target: Sodium-dependent dopamine transporter (Homo sapiens) (UniProt Q01959); assay: Binding affinity to dopamine transporter (unknown origin) 10 umol/L by radioligand binding assay; details: dose 10.0 µmol/L
[19] = target: D(3) dopamine receptor (Homo sapiens) (UniProt P35462); assay: Binding affinity to D3 receptor (unknown origin) 10 umol/L by radioligand binding assay; details: dose 10.0 µmol/L
[20] = target: Neuromedin-K receptor (Homo sapiens) (UniProt P29371); assay: Binding affinity to NK3 receptor (unknown origin) 10 umol/L by radioligand binding assay; details: dose 10.0 µmol/L
[21] = target: D(1A) dopamine receptor (Homo sapiens) (UniProt P21728); assay: Binding affinity to D1 receptor (unknown origin) 10 umol/L by radioligand binding assay; details: dose 10.0 µmol/L
[22] = target: 5-hydroxytryptamine receptor 1A (Homo sapiens) (UniProt P08908); assay: Binding affinity to 5-HT1A receptor (unknown origin) 10 umol/L by radioligand binding assay; details: dose 10.0 µmol/L
[23] = target: Gastrin/cholecystokinin type B receptor (Homo sapiens) (UniProt P32239); assay: Binding affinity to CCKB (unknown origin) 10 umol/L by radioligand binding assay; details: dose 10.0 µmol/L
[24] = target: Muscarinic acetylcholine receptor M4 (Homo sapiens) (UniProt P08173); assay: Binding affinity to muscarinic M4 (unknown origin) 10 umol/L by radioligand binding assay; details: dose 10.0 µmol/L
[25] = target: Beta-2 adrenergic receptor (Homo sapiens) (UniProt P07550); assay: Binding affinity to beta2 adrenoreceptor (unknown origin) 10 umol/L by radioligand binding assay; details: dose 10.0 µmol/L
[26] = target: Histamine H2 receptor (Homo sapiens) (UniProt P25021); assay: Binding affinity to H2 receptor (unknown origin) 10 umol/L by radioligand binding assay; details: dose 10.0 µmol/L
[27] = target: Adenosine receptor A3 (Homo sapiens) (UniProt P0DMS8); assay: Binding affinity to A3 receptor (unknown origin) 10 umol/L by radioligand binding assay; details: dose 10.0 µmol/L
[28] = target: B1 bradykinin receptor (Homo sapiens) (UniProt P46663); assay: Binding affinity to B1 receptor (unknown origin) 10 umol/L by radioligand binding assay; details: dose 10.0 µmol/L
[29] = target: Neurotensin receptor type 1 (Homo sapiens) (UniProt P30989); assay: Binding affinity to NT1 receptor (unknown origin) 10 umol/L by radioligand binding assay; details: dose 10.0 µmol/L
Homo sapiens [30] = species on record: Homo sapiens; assay: Binding affinity to Kainate receptor (unknown origin) 10 umol/L by radioligand binding assay; details: dose 10.0 µmol/L
Homo sapiens [31] = species on record: Homo sapiens; assay: Binding affinity to estrogen receptor (unknown origin) 10 umol/L by radioligand binding assay; details: dose 10.0 µmol/L
[32] = target: Androgen receptor (Homo sapiens) (UniProt P10275); assay: Binding affinity to androgen receptor (unknown origin) 10 umol/L by radioligand binding assay; details: dose 10.0 µmol/L
Homo sapiens [33] = species on record: Homo sapiens; assay: Binding affinity to Leukotriene B4 receptor (unknown origin) 10 umol/L by radioligand binding assay; details: dose 10.0 µmol/L
[34] = target: Muscarinic acetylcholine receptor M3 (Homo sapiens) (UniProt P20309); assay: Binding affinity to muscarinic M3 (unknown origin) 10 umol/L by radioligand binding assay; details: dose 10.0 µmol/L
[35] = target: Platelet-activating factor receptor (Homo sapiens) (UniProt P25105); assay: Binding affinity to PAF receptor (unknown origin) 10 umol/L by radioligand binding assay; details: dose 10.0 µmol/L
[36] = target: Adenosine receptor A2a (Homo sapiens) (UniProt P29274); assay: Binding affinity to A2a receptor (unknown origin) at 10 umol/L by radioligand binding assay; details: dose 10.0 µmol/L
Homo sapiens [37] = species on record: Homo sapiens; assay: Binding affinity to NMDA receptor PCP site (unknown origin) 10 umol/L by radioligand binding assay; details: dose 10.0 µmol/L
[38] = target: B2 bradykinin receptor (Homo sapiens) (UniProt P30411); assay: Binding affinity to B2 receptor (unknown origin) 10 umol/L by radioligand binding assay; details: dose 10.0 µmol/L
[39] = target: Neuropeptide Y receptor type 2 (Homo sapiens) (UniProt P49146); assay: Binding affinity to Y2 receptor (unknown origin) 10 umol/L by radioligand binding assay; details: dose 10.0 µmol/L
Homo sapiens [40] = species on record: Homo sapiens; assay: Binding affinity to NMDA receptor polyamine site (unknown origin) 10 umol/L by radioligand binding assay; details: dose 10.0 µmol/L
[41] = target: Cholecystokinin receptor type A (Homo sapiens) (UniProt P32238); assay: Binding affinity to CCKA (unknown origin) 10 umol/L by radioligand binding assay; details: dose 10.0 µmol/L
[42] = Lipophilicity, logD of compound in n-octanol and phosphate buffered saline at 2 mg after 1.5 hrs by HPLC based shake flask method; assay type: physicochemical

Chain of Gastrin/cholecystokinin type B receptor (Homo sapiens) (P32239 whole entry): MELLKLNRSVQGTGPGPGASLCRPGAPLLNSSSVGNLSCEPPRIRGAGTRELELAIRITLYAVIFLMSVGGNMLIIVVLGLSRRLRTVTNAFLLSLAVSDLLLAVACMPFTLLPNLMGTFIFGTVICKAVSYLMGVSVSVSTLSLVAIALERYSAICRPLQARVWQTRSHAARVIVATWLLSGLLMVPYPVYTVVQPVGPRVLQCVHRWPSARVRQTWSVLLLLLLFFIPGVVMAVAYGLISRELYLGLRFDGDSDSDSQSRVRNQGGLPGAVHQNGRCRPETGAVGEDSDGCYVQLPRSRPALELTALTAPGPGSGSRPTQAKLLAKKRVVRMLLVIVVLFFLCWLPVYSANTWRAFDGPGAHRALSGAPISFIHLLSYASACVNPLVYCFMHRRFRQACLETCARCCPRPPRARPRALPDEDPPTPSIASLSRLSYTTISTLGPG
Chain of 5-hydroxytryptamine receptor 2A (Homo sapiens) (P28223 whole entry): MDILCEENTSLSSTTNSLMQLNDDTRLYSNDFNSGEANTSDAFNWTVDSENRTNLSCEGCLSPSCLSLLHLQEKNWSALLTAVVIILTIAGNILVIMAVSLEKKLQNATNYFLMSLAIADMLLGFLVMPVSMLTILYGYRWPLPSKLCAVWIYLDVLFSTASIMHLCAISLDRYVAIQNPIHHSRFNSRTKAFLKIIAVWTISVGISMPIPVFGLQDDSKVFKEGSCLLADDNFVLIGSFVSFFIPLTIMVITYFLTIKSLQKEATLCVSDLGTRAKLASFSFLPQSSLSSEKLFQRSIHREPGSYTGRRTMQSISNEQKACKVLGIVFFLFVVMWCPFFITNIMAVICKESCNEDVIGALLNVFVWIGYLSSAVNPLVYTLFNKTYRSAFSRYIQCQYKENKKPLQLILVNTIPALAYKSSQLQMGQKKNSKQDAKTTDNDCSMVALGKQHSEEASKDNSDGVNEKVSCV
Chain of Androgen receptor (Homo sapiens) (P10275 whole entry): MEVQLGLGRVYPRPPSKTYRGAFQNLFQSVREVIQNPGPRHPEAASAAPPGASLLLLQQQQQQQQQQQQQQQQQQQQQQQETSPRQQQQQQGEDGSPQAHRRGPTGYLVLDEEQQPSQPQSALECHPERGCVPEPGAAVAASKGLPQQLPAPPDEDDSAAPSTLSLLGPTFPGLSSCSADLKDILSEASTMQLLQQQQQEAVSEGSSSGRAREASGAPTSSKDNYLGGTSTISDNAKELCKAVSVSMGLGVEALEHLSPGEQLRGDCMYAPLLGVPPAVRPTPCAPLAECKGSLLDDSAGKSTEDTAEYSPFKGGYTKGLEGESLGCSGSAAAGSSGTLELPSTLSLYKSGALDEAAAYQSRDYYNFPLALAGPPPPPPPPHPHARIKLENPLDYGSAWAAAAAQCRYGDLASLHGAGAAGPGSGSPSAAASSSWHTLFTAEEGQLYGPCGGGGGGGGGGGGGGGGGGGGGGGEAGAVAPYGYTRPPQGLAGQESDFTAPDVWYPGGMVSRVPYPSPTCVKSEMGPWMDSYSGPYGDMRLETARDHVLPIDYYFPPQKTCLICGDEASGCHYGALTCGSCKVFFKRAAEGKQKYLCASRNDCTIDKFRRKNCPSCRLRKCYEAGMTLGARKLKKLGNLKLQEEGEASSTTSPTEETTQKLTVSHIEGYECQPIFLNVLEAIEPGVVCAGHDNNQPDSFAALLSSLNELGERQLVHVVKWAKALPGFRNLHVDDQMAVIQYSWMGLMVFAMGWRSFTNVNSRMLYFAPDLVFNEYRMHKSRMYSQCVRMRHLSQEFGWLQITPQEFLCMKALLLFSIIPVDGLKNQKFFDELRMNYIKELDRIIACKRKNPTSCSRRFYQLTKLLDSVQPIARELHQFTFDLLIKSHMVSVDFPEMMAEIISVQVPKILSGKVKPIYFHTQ
Chain of Sodium-dependent noradrenaline transporter (Homo sapiens) (P23975 whole entry): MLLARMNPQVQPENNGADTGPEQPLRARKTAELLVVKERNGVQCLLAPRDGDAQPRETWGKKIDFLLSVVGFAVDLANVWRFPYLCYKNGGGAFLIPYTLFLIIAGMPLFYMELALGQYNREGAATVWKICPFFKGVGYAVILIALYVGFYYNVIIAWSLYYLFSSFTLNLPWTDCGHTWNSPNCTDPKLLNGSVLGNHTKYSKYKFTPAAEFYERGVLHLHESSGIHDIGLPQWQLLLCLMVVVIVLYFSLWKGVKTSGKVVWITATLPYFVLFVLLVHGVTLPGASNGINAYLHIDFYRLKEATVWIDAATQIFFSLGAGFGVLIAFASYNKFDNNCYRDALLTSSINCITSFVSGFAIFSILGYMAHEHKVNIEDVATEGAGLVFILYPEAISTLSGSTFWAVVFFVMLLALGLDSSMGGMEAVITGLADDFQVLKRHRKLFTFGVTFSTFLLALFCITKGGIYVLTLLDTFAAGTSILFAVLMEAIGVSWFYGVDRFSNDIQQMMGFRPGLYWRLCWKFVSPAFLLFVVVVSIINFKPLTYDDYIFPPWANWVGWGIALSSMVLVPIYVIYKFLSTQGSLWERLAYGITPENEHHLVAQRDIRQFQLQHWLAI
Chain of 5-hydroxytryptamine receptor 1A (Homo sapiens) (P08908 whole entry): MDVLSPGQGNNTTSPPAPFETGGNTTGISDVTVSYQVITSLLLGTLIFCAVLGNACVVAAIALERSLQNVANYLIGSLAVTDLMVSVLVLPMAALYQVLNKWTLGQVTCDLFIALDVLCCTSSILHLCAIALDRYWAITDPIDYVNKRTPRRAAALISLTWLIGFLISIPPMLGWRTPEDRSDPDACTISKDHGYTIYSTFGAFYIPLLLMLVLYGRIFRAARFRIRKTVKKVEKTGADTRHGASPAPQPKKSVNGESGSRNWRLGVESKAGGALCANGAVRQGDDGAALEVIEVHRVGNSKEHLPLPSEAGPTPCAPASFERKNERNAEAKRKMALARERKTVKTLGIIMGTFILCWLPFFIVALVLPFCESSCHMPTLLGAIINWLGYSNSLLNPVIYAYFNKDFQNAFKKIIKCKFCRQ
Chain of Sodium-dependent dopamine transporter (Homo sapiens) (Q01959 whole entry): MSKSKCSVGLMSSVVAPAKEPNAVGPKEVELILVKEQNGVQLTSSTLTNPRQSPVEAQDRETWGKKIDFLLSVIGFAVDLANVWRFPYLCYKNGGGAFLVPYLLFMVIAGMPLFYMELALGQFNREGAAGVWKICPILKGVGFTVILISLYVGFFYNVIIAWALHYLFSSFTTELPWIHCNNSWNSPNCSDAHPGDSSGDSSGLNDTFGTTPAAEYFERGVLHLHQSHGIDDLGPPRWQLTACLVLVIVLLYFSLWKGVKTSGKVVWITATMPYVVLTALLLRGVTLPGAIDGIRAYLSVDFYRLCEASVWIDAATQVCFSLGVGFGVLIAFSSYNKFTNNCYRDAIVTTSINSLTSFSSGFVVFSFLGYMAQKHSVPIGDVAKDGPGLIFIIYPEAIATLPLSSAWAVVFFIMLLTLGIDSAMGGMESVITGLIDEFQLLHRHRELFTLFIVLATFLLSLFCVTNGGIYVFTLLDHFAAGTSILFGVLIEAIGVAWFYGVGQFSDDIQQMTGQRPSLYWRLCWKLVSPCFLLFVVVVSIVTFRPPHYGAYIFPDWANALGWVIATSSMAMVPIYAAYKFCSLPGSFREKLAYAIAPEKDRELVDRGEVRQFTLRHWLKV
Chain of Adenosine receptor A2a (Homo sapiens) (P29274 whole entry): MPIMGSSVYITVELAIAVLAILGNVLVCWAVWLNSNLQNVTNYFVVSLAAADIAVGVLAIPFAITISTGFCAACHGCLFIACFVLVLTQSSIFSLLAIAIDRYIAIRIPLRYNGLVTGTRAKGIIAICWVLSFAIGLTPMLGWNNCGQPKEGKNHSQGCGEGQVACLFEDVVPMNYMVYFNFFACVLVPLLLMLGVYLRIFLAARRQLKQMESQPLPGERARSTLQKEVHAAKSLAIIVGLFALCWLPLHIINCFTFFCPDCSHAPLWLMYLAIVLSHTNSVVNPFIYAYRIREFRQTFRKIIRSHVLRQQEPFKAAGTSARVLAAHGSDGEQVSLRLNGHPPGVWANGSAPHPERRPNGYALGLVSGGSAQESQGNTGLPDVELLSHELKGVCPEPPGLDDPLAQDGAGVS
Chain of Adenosine receptor A3 (Homo sapiens) (P0DMS8 whole entry): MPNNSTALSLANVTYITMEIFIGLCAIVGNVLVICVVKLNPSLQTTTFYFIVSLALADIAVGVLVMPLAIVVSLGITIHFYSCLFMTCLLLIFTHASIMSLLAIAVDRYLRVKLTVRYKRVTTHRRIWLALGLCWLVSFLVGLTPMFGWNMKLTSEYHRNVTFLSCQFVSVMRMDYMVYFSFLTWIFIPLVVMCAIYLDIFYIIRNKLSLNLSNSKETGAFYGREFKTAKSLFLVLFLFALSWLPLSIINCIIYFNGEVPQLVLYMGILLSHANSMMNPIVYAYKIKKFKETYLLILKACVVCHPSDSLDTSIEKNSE
Chain of Beta-2 adrenergic receptor (Homo sapiens) (P07550 whole entry, looked up): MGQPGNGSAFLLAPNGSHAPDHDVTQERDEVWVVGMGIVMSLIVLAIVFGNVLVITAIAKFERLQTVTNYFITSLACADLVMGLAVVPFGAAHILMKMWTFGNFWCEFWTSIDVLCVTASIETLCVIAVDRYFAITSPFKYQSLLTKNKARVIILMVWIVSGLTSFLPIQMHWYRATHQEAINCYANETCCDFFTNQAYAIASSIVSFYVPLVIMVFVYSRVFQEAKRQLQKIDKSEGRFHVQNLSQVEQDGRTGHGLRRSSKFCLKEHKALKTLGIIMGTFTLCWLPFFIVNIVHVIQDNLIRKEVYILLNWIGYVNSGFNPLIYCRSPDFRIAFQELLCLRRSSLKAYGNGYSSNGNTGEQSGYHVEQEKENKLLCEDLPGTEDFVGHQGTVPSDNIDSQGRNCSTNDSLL
Chain of Melatonin receptor type 1A (Homo sapiens) (P48039 whole entry): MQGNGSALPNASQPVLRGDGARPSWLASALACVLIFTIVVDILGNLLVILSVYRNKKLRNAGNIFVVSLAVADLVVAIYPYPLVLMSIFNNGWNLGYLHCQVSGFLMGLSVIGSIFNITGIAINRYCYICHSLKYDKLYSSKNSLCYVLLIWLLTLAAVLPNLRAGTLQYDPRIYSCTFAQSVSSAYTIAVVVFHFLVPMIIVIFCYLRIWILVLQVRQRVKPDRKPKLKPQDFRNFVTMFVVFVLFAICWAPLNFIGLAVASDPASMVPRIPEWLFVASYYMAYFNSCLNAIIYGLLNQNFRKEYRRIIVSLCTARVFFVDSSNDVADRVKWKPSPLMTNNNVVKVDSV

Activity (Homo sapiens [1]): inactive
Activity [2]: inactive
Activity [3]: inactive
Activity [4]: inactive
Activity [5]: inactive
Activity [6]: inactive
Activity [7]: inactive
Activity [8]: inactive
Activity [9]: inactive
Activity [10]: inactive
Activity [11]: Not Active
Activity [12]: inactive
Activity [13]: inactive
Activity (Homo sapiens [14]): inactive
Activity [15]: inactive
Activity (Homo sapiens [16]): inactive
Activity (Homo sapiens [17]): inactive
Activity [18]: inactive
Activity [19]: inactive
Activity [20]: inactive
Activity [21]: inactive
Activity [22]: inactive
Activity [23]: inactive
Activity [24]: inactive
Activity [25]: inactive
Activity [26]: inactive
Activity [27]: inactive
Activity [28]: inactive
Activity [29]: inactive
Activity (Homo sapiens [30]): inactive
Activity (Homo sapiens [31]): inactive
Activity [32]: inactive
Activity (Homo sapiens [33]): inactive
Activity [34]: inactive
Activity [35]: inactive
Activity [36]: inactive
Activity (Homo sapiens [37]): inactive
Activity [38]: inactive
Activity [39]: inactive
Activity (Homo sapiens [40]): inactive
Activity [41]: inactive
logD ([42]; 1.5 h): -4.02
Structure (SMILES): N[C@]1(C(=O)O)[C@H]2[C@@H](C[C@@H]1F)[C@@H]2C(=O)O

Activity (Homo sapiens [1]): inactive
Activity [2]: inactive
Activity [3]: inactive
Activity [4]: inactive
Activity [5]: inactive
Activity [6]: inactive
Activity [7]: inactive
Activity [8]: inactive
Activity [9]: inactive
Activity [10]: inactive
Activity [11]: Not Active
Activity [12]: inactive
Activity [13]: inactive
Activity (Homo sapiens [14]): inactive
Activity [15]: inactive
Activity (Homo sapiens [16]): inactive
Activity (Homo sapiens [17]): inactive
Activity [18]: inactive
Activity [19]: inactive
Activity [20]: inactive
Activity [21]: inactive
Activity [22]: inactive
Activity [23]: inactive
Activity [24]: inactive
Activity [25]: inactive
Activity [26]: inactive
Activity [27]: inactive
Activity [28]: inactive
Activity [29]: inactive
Activity (Homo sapiens [30]): inactive
Activity (Homo sapiens [31]): inactive
Activity [32]: inactive
Activity (Homo sapiens [33]): inactive
Activity [34]: inactive
Activity [35]: inactive
Activity [36]: inactive
Activity (Homo sapiens [37]): inactive
Activity [38]: inactive
Activity [39]: inactive
Activity (Homo sapiens [40]): inactive
Activity [41]: inactive
logD at 1.5 h ([42]; n-octanol/phosphate buffered saline): > 2.04
Structure (SMILES): CC(C)[C@@H]1CC[C@@H](C)C[C@H]1OC(=O)O[C@@H](C)OC(=O)[C@H]1[C@@H]2C[C@H](F)[C@@](N)(C(=O)O)[C@@H]21

Source: ChEMBL document CHEMBL4706518, “Discovery of MGS0274, an ester prodrug of a metabotropic glutamate receptor 2/3 agonist with improved oral bioavailability” (Eur J Med Chem, 2020)
